Reference: patent US9162992B2, “Compounds and compositions for treatment of breathing control disorders or diseases” (GALLEON PHARMACEUTICALS, INC., priority 2010, dated 2015)

Legend:
Format in all cases: in vivo
[1] = tested on: hypoxic ventilatory response; experiment: Hypoxic ventilatory response (HVR) in the rat, plethysmography; conditions: 0.03 mg/kg/min infusion 50 min; 12% O2 for 20 min; vs vehicle
Protocol: Rats with a pre-cannulated jugular vein (for administering drugs) were acclimated to plethysmography chambers for a minimum of 60 minutes, or until animals were no longer restless. Each animal was dosed with compound (XXXVI), labeled as cmpd (A), at 0.03 mg/kg/min via infusion into the jugular vein catheter for a period of 50 minutes. After a period of 20 minutes, an isocapnic hypoxic mixture (12% O2 balanced N2) was administered into all chambers using a gas mixer (CWE inc. GSM-3 gas mixer) for 20 minutes. After this time, the gas mixer was turned off, resulting in normal room air pumped into the chambers. Ten minutes later, the infusion pumps were turned off, and all animals were given a 20 minute recovery period, followed by a post-study analysis of rat health and behavior. […] Results are illustrated in FIG. 3.

[2] = tested on: hypercapnic ventilatory response; experiment: Hypercapnic ventilatory response (HCVR, 3% CO2), rat plethysmography; conditions: for hypercapnia ventilatory response (HCVR): 3% CO2
Protocol: A 1.5 mg/mL stock was created to give an infusion dose of 0.10 mg/kg/min. A separate 0.45 mg/mL stock was created to give an infusion dose of 0.03 mg/kg/min. All compound solutions and vehicles were titrated to have a pH between 4-8, using a pH paper and titrating with NaOH or HCl solution.
Male Sprague-Dawley rats (Harlan, Inc.), 250-350 g at time of dosing, had been surgically prepared by Harlan to contain jugular vein cannulas. A 12 chamber plethysmography system with temperature/humidity compensation (Epstein et al., 1980, J. Apply Physiol. 49:1107-1115) from Buxco, Inc. (PLY 3223; Buxco, Inc, Wilmington, N.C., USA) using Biosystem XA software, v2.11.1 and a customized 12 site automated infusion system (Harvard Apparatus, Instech, Inc). Gas mixer (CWE Inc.) was used for this experiment to give concentrations of hypercapnia (3% CO2, 21% O2, balance nitrogen). Three tanks containing 100% O2, CO2, and nitrogen were attached to the gas mixer, with the customized gas mixture fed to each plethysmograph at a rate of 2 L/min.
Rat whole body plethysmography was used to evaluate and quantify minute ventilation and the pattern of breathing. A respiratory waveform was generated from the exchange of air between the animal and the chamber. This exchange induced changes in air volume that were measured with a pressure transducer, constituting the respiratory waveform (Lomask M., 2005, “Respiration measurement in the whole body plethysmography,” Buxco Inc., retrieved from http://www dot buxco dot com/downloads/LomaskWBP dot pdf). Atmospheric temperature and humidity were also measured using temperature and humidity probes that sampled chamber conditions. A compensation factor was then determined and applied to the respiratory waveform using a standardized algorithm (Epstein et al., 1980, J. Apply Physiol. 49:1107-1115) to compensate for respiratory conditioning, which was reported as the parameter COMP.
All animals were acclimated to plethysmography chambers for at least 1 hour, or until animals were no longer restless (up to 2 hours prior to data collection). Minute ventilation (MV) was calculated by the Biosystem XA software from direct measurements of tidal volume (TV) and respiratory frequency (f) using the formula MV=TV×f. Minute ventilation (mL/min) is a common endpoint for evaluating ventilatory performance. The protocol included compound (XXXVI) given as a 20 minute infusion, followed by a 20 minute exposure to 3% hypercapnia in addition to the compound (XXXVI) infusion. After 20 minutes of hypercapnia, the compound (XXXVI) infusion continued for an additional 10 minutes, resulting in a total compound (XXXVI) infusion time of 50 minutes. Each experiment included 6 animals receiving compound (XXXVI) (0.03 or 0.10 mg/kg/min) tested against 6 animals receiving vehicle, all of which were challenged with hypercapnia (3%). Animals were continuously monitored and observed for adverse behavioral effects. Such findings were recorded into laboratory notebooks for each individual animal tested.
Respiratory data was collected on a breath-by-breath basis and averaged into 1 min time bins for data analysis. […] Each parameter was compared to vehicle in order to calculate percent difference, using area under the curve (AUC) and peak response values for each defined acquisition period using a customized visual basic restructure analysis macro (Lopotosky, S. Galleon Buxco Restructure tool, v5.2, 2008). All of the data analysis for the single, stand-alone studies was done using the restructure analysis macro (Lopotosky, S. Galleon Buxco Restructure tool, v5.2, 2008). All merged data analysis with both doses was performed in Graphpad Prism for MV, TV, and f only, for hypercapnia studies. Additionally, percent increase was calculated based on the cohort average immediately prior to the hypercapnic challenge to the group's peak response. For merged hypercapnia studies, t=62 to t=67 was used.

[3] = tested on: morphine-induced respiratory depression; experiment: Opioid-induced respiratory depression in the rat, plethysmography (minute ventilation); conditions: morphine sulfate 10 mg/kg IV; infusion 0.10 then 0.30 mg/kg/min, 20 min each; vs vehicle
Protocol: Rats with pre-cannulated jugular vein (for administering drugs) were acclimated to plethysmography chambers for a minimum of 60 minutes, or until animals were no longer restless. Each animal was dosed with morphine sulfate (10 mg/kg), dissolved in sterile water at a concentration of 10 mg/mL (supplied by Baxter Healthcare Corporation), via injection into the jugular vein catheter over a period of 5-10 seconds.
Compound (XXXVI) was dissolved in 20% hydroxypropyl β-cyclodextran (20% bcd on graph) at a concentration of 0.45 mg/mL at pH 5. After a period of 5 min, compound (XXXVI), labeled as cmpd (A), was administered via infusion into the jugular vein at a dose of 0.10 mg/kg/min for 20 min and then at a dose of […] for 20 min (e.g., 20 μL/min/0.3 kg rat to yield […]).
After 20 minutes of infusion at this dose, the infusion pumps were turned off, and all animals were given a 20 minute recovery period, followed by a post-study analysis of rat health and behavior. […] Results are illustrated in FIG. 1.

SMILES: CCCNc1nc(NCCC)nc(N(C)OC)n1.O=S(=O)(O)O [XXXVI, N-(4,6-Bis-n-propylamino-[1,3,5]triazin-2-yl)-N,O-dimethyl-hydroxylamine hydrogen sulfate]
- minute ventilation, hypoxic ventilatory response [1]: significantly potentiates the hypoxic ventilatory response
- facilitation of the HCVR ([2]; 0.03 mg/kg/min (same as vehicle group), t=62 to t=67): 60%
- respiration in naive animals ([2]; 0.03 mg/kg/min IV infusion): little or no effect
- hypercapnia ventilatory response (HCVR) ([2]; 0.03 mg/kg/min): no effect
- respiration in naive animals ([2]; 0.10 mg/kg/min IV infusion): stimulated respiration in naive animals
- hypercapnia ventilatory response (HCVR) ([2]; 0.10 mg/kg/min): augmentation of the hypercapnia ventilatory response (HCVR)
- increase in MV during the HCVR challenge ([2]; 0.10 mg/kg/min, t=62 to t=67, on top of elevated MV due to compound alone): 44%
- adverse clinical observations ([2]; rats, doses tested): no adverse clinical observations
- minute ventilation, reversal of opioid-induced respiratory depression [3]: significantly reversed opioid-induced respiratory depression
